Reference: patent publication US5077034A, “Treatment of tumors with 5-radioiodo-2'-deoxyuridine” (priority 1990, dated 1991)

Legend:
[1] = tested on: murine ovarian tumor (MOT); test: tumor cell survival after treatment of mouse ascites tumor (MOT); assay type: in vivo, C3HeB/FeJ mice
Experimental: (§1) The murine ovarian tumor (MOT) used in these experiments arose spontaneously in the ovary of a C3H mouse and is maintained in our laboratories by serial intraperitoneal [i.p.] transplantation in female C3HeB/FeJ mice. We have examined the appropriateness of the i.p. route for IUdR administration as a means to (i) bypass the rapid intrahepatic dehalogenation of this agent, and (ii) obtain high tumor to nontumor ratios. In these experiments, mice were injected with 10^6 tumor cells 24 h prior to the i.p. administration of ^125 IUdR [5 injections, 4 h apart]. […] Tumor-to-normal-tissue ratios derived from th biodistribution results ranged from 20 for organs with actively proliferating cells (for example uterus, intestine, stomach) to over 400 for organs with nondividing cells (brain, heart).
(§2) The tumor used in these experiments is the same murine ovarian tumor desoribed above. We have determined the median survival of mice after i.p. challenge with various tumor cell inocula.
The relatively long survival of tumor-bearing mice facilitates quantitative evaluation of tumor cell killing after treatment with ^125 IUdR and can be used to calculate a cellular survival fraction. We have, therefore, studied tumor cell survival as a function of the dose of ^125 IUdR administered i.p. at 4 h intervals beginning 24 h after tumor cell i.p. inoculation [10^5 -10^6 cells].
When mice are treated with four doses of ^125 IUdR at 4-h intervals and the survival fraction plotted as a function of the dose per treatment, a rapid decrease in the tumor cell survival fraction [10^-3 ] is observed at doses of 20 μCi per treatment with the curve being flat at higher levels [FIG. 6]. When seven consecutive injections of ^125 IUdR are given, a similar steep reduction in tumor cell survival is also observed; the plateau in this regimen occurs at a survival fraction of 10^-5.

[2] = catabolism/dehalogenation of IUdR in vivo; conditions: IUdR escaping from the CNS
[3] = biodistribution of radioactivity 40 h after intracerebral injection in 9L gliosarcoma-bearing and sham-operated rats; conditions: rat, right brain
9L gliosarcoma [4] = test: as above
9L gliosarcoma [5] = test: scintigraphic imaging of intracerebral 9L gliosarcoma-bearing and sham-operated rats
[6] = tested on: murine ovarian tumor (MOT); test: scintigraphic imaging in MOT-bearing and control mice; assay type: in vivo, C3HeB/FeJ mice
cultured mammalian cells = conditions: when incorporated into nuclear DNA; in vitro; cited from earlier work
[7] = tested on: murine ovarian tumor (MOT); test: median survival of tumor-bearing (MOT ascites) mice; assay type: in vivo, C3HeB/FeJ mice; conditions: 5 i.p. injections, 4 h intervals, 24 h post i.p. tumor inoculation; FIG. 7; dose-dependent
Experimental: as §1, §2

[8] = later time points (2, 16 and 24 hr), single injection of 300 μCi

## O=c1[nH]c(=O)n([C@H]2C[C@H](O)[C@@H](CO)O2)cc1[131I] [IUdR radiolabeled with ^131 I, reference compound]
[1]; equivalent doses
  decrease in tumor cell survival: does not result in anv decrease in survival

## O=c1[nH]c(=O)n([C@H]2C[C@H](O)[C@@H](CO)O2)cc1I [IUdR, 5-Iodo-2'-deoxyuridine]
[2]
  catabolism/dehalogenation: rapidly

## O=c1[nH]c(=O)n([C@H]2C[C@H](O)[C@@H](CO)O2)cc1[123I] [^123 IUdR, 5-[^123 I/^125 I]iodo-2'-deoxyuridine]
[3]
  tissue uptake at 40 h: 0.36 ± 0.14 %ID/g
[3]; uptake in right brain [injected side], sham-operated controls, 40 h after injection, mean±SD
  tissue uptake at 40 h: 0.09 ± 0.02 %ID/g
9L gliosarcoma [4]; 40 h, mainly associated with the stomach contents and with urine
  activity in stomach and bladder: high activities
9L gliosarcoma [4]; 40 h, with the exception of the stomach and the bladder
  activity in all other normal tissues: low
9L gliosarcoma [4]; one animal, 40 h after injection
  uptake in a tumor that could be precisely excised: 12 % of the ID
9L gliosarcoma [5]; 0.1% potassium iodide in drinking water 48 h prior
  activity in the thyroid: No activity was seen
9L gliosarcoma [5]; 12-38 h, all tumor-bearing animals
  activity within the head region at subsequent intervals: persistence of the activity
9L gliosarcoma [5]; 12-38 h, both groups, mainly associated with stomach contents and urine
  bladder and stomach activities at subsequent intervals: still observed in both groups
9L gliosarcoma [5]; 1 h after intracerebral injection, tumor-bearing [n=16] and sham-operated [n=8]
  activity in the head: showed activity in the head
9L gliosarcoma [5]; all control (sham-operated) animals
  clearance of the activity from the head: ≤ 12 h
9L gliosarcoma [5]; scintigraphy, 1 h after intracerebral injection
  activity in the stomach and the bladder: evident
9L gliosarcoma [5]; suggested by stomach and bladder activity, 1 h
  dehalogenation and excretion of free iodine: rapid
[6]; 1 h after single injection of 300 μCi
  abdominal radioactivity, tumor-bearing and control mice: focal localization of radioactivity
[6]; [8]
  abdominal activity, animals without tumor: cleared from the abdomen
  focal area of abdominal activity, MOT-bearing mice: persisted only in MOT-bearing mice
Cultured mammalian cells
  toxicity to cultured mammalian cells: extremely toxic
[7]
  median survival of tumor-bearing animals: prolongs median survival
[1]; 5 i.p. injections, 4 h intervals, 24 h post i.p. tumor inoculation, FIG. 8
  tumor cell survival fraction as a function of dose: exponential decrease

## O=c1[nH]c(=O)n([C@H]2C[C@H](O)[C@@H](CO)O2)cc1[125I] [^125 IUdR, 5-[^123 I/^125 I]iodo-2'-deoxyuridine]
Cultured mammalian cells
  toxicity to cultured mammalian cells: extremely toxic
[1]; four i.p. doses at 4-h intervals, 20 μCi per treatment, curve flat at higher levels
  tumor cell survival fraction: 10^-3
[1]; seven consecutive i.p. injections
  tumor cell survival fraction (plateau): 10^-5
